Test results published in the supplement of paper PMC10307832.

What was measured:
Test in all cases: relative viability (nuclei count vs DMSO), 5 days (fraction); higher = more cells survive
[1] = compound: C1COCCN1C2=NC(=NC3=C2OC4=C3C=CC=N4)C5=CC(=CC=C5)NC(=O)C6=CN=C(C=C6)N
Procedure, shortened: (§1)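 Viability is treated-well nuclei as a fraction of vehicle-well nuclei, reported as the median across plates. Before counting, lung cancer cell lines were kept overnight at 37 °C in 1536-well plates, pinned with five √10-spaced library-drug doses on vehicle-anchored plates, and left 5 days without medium change, then fixed, permeabilised and Hoechst-stained in one step, imaged at 4× and counted by MetaXpress. A plate passed only if control CV was below 25% and at least one doubling occurred.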

SGI-1776 = compound: CN1CCC(CNc2ccc3ncc(-c4cccc(OC(F)(F)F)c4)n3n2)CC1 [SGI-1776]
Procedure, shortened: as §1

Entinostat = compound: Nc1ccccc1NC(=O)c1ccc(CNC(=O)OCc2cccnc2)cc1 [Entinostat]
Procedure, shortened: as §1

Cell Line | relative viability ([1]; 0.02 µM) | relative viability ([1]; 0.06325 µM) | relative viability ([1]; 0.2 µM) | relative viability ([1]; 0.6325 µM) | relative viability ([1]; 2 µM) | relative viability (SGI-1776; 0.08 µM) | relative viability (SGI-1776; 0.8 µM) | relative viability (SGI-1776; 2.53 µM) | relative viability (SGI-1776; 8 µM) | relative viability (Entinostat; 0.02 µM) | relative viability (Entinostat; 0.06325 µM) | relative viability (Entinostat; 0.2 µM) | relative viability (Entinostat; 0.6325 µM) | relative viability (Entinostat; 2 µM)
LCLC-97TM1 | 1.03 | 0.99 | 0.994 | 1.1 | 0.905 | 1.01 | 1.03 | 1.11 | 1.01 | 1.1 | 1.11 | 1.02 | 0.732 | 0.702
LCLC-103H | 0.913 | 1.06 | 1.07 | 0.978 | 0.815 | 1.02 | 0.998 | 0.964 | 0.924 | 1.03 | 1.06 | 0.942 | 0.721 | 0.454
LK-2 | 0.998 | 1.08 | 1.09 | 0.757 | 0.585 | 1.09 | 1.03 | 1.03 | 0.77 | 1.04 | 1.03 | 0.868 | 0.652 | 0.349
LOU-NH91 | 0.955 | 1.01 | 0.948 | 0.925 | 0.897 | 1.02 | 1.03 | 0.969 | 0.713 | 1.05 | 1.11 | 1 | 0.897 | 0.739
LU99A | 0.966 | 0.956 | 0.859 | 0.777 | 0.564 | 0.948 | 1.03 | 0.964 | 0.861 | 0.918 | 0.93 | 0.871 | 0.69 | 0.603
LXF-289 | 1.06 | 1.03 | 1.07 | 0.995 | 0.8 | 1.01 | 1.05 | 1.05 | 0.959 | 1 | 0.978 | 0.952 | 0.711 | 0.63
NCI-H23 | 0.937 | 0.843 | 0.869 | 0.854 | 0.654 | 0.921 | 1.01 | 1.06 | 0.887 | 1.06 | 1.27 | 1.15 | 0.9 | 0.395
NCI-H322M | 0.903 | 0.923 | 0.944 | 0.854 | 0.725 | 0.975 | 1.01 | 1.05 | 0.69 | 1.02 | 1.11 | 1.14 | 0.961 | 0.859
NCI-H358 | 0.864 | 1.09 | 0.871 | 0.832 | 0.625 | 0.986 | 0.957 | 0.897 | 0.512 | 1.09 | 1.17 | 0.934 | 0.641 | 0.255
NCI-H441 | 1.1 | 1.14 | 1.08 | 0.888 | 0.443 | 0.913 | 1.12 | 1.15 | 0.817 | 1.01 | 1.18 | 0.882 | 0.35 | 0.218
NCI-H460 | 1.05 | 1.09 | 0.974 | 1.03 | 0.477 | 1.01 | 0.994 | 0.988 | 0.947 | 1.02 | 0.986 | 0.842 | 0.307 | 0.0693
NCI-H520 | 0.857 | 1.12 | 1.05 | 0.921 | 0.659 | 0.998 | 1.18 | 1 | 0.832 | 1 | 1.07 | 0.934 | 0.9 | 0.792
NCI-H522 | 0.945 | 0.927 | 0.888 | 0.988 | 0.955 | 1.04 | 1.01 | 0.875 | 0.827 | 1.03 | 0.967 | 1.19 | 1.11 | 0.646
NCI-H596 | 0.993 | 1.11 | 0.944 | 0.948 | 0.832 | 0.943 | 1.11 | 0.869 | 0.731 | 1.03 | 0.937 | 0.975 | 0.854 | 0.588
NCI-H647 | 0.862 | 1.02 | 0.905 | 0.867 | 0.546 | 0.988 | 1.09 | 0.839 | 0.544 | 1.05 | 1.04 | 0.897 | 0.462 | 0.165
NCI-H650 | 0.958 | 0.875 | 0.918 | 0.952 | 0.849 | 0.935 | 0.955 | 0.997 | 0.677 | 1.15 | 1.02 | 0.939 | 0.941 | 0.308
NCI-H661 | 0.989 | 1.04 | 0.978 | 1 | 0.813 | 1.02 | 1.04 | 1.06 | 0.974 | 1 | 0.999 | 0.911 | 0.809 | 0.664
NCI-H727 | 0.973 | 1.1 | 0.878 | 0.9 | 1.02 | 0.976 | 1.02 | 1.01 | 0.852 | 0.892 | 0.895 | 0.887 | 0.614 | 0.545
NCI-H838 | 0.852 | 0.947 | 0.917 | 0.791 | 0.57 | 0.928 | 0.994 | 0.936 | 0.645 | 1.11 | 1.08 | 1.08 | 0.733 | 0.406
NCI-H1299 | 0.991 | 1.1 | 1.03 | 1.02 | 0.868 | 1.03 | 1.01 | 0.996 | 0.946 | 1.03 | 1 | 0.994 | 0.85 | 0.727
NCI-H1355 | 0.967 | 1.04 | 0.998 | 0.959 | 0.888 | 1.01 | 1.06 | 0.994 | 0.888 | 0.975 | 0.918 | 0.823 | 0.638 | 0.523
NCI-H1395 | 0.846 | 0.935 | 0.724 | 0.801 | 0.821 | 1.04 | 1.04 | 0.827 | 0.621 | 1.1 | 1.15 | 0.962 | 0.745 | 0.601
NCI-H1437 | 0.978 | 1 | 0.957 | 0.995 | 0.56 | 1.02 | 1.04 | 0.972 | 0.887 | 0.952 | 0.652 | 0.476 | 0.34 | 0.237
NCI-H1563 | 0.938 | 0.992 | 0.859 | 0.786 | 0.758 | 1 | 1.05 | 0.925 | 0.756 | 0.938 | 0.959 | 0.887 | 0.816 | 0.776
NCI-H1623 | 1.07 | 0.943 | 0.895 | 0.924 | 0.853 | 0.977 | 0.967 | 0.951 | 0.897 | 1 | 0.937 | 0.918 | 0.625 | 0.462
